Laboratory results as given in paper PMC9929129, “Towards Translation of PqsR Inverse Agonists: From In Vitro Efficacy Optimization to In Vivo Proof‐of‐Principle” (Advanced Science, 2023).
Where “and” joins values, the source holds several entries; their conditions need not be identical. Identical values can stand only once.

Assays:
[1] = Metabolic stability in mouse liver microsomes (MLM)
Description: 1.3.2 Metabolic-Stability Tests in Mouse Liver Microsomes (MLM).
Phase I metabolic stability was evaluated by incubating the compound (1 μM) with 0.5 mg/mL MLM (Corning) and 1 mM NADPH at 37 °C for 0, 5, 10, 15 and 30 min. The enzymatic activity of the MLM was determined by measuring the metabolic stability of Verapamil, Diphenhydramine and Benzydamine (1 μM each).
The half-life (t1/2) was determined by analyzing the concentrations of the compounds at the different time points by HPLC-MS/MS.

[2] = target: T1, Potassium Channel hERG (human) (Homo sapiens, UniProt Q12809); test: Cerep panel binding assay; settings: 10 µM, [3H] Dofetilide
T1 construct: purchased Eurofins Pharma Discovery (Cerep) SafetyScreen44 Panel, ITEM P270
Description: (§1) 1.4 Safety Pharmacology of Compound 24
(§2) 1.4.1 Cerep panel (Eurofins)
(§3) Compound 24 was further profiled for its off-target interactions against a panel of 44 targets. The
(§4) screening was done by Eurofins Pharma Discovery within the SafetyScreen44 Panel (Cerep, ITEM
P270). In all assays binding/functional inhibition was determined at 10 µM.
Table S6. […]
Potassium Channel hERG (human) [3H] […]

[3] = target: T2, GABAA α5/β3/γ2 ionotropic receptor (Homo sapiens, UniProt P18507+P28472+P31644); test: Ion channel profiling at Charles River: GABAA; assay type: cell-based
T2 construct: host or cells: HEK293 cells
Description: 1.4.3 Ion Channel Profiling at Charles River
Table S9. Compound 24 was tested against the following ion channels at Charles River Laboratories. […]
FASTPatch Assay IK (KCa3.1) calcium-activated potassium channel (human KCNN4 >30 gene) expressed in CHO cells […]
ScreenPatch Assay Kv1.3 potassium channel (human KCNA3 gene) expressed in CHO […]
(§5) FLIPR Assay expressed in HEK293 cells
GABAA α5/β3/γ2 ionotropic receptor (human GABRA5, GABRB3, >30 and GABRG2 genes, expressed in HEK293 cells

[4] = target: T3, NET human norepinephrine transporter (Homo sapiens, UniProt P23975); test: NET functional antagonist uptake assay (Eurofins); assay type: cell-based
T3 construct: Eurofins 302000
Description: 1.4.2 Further functional off-target assays (Eurofins)
Table S8. Compound 24 was further tested in the following functional assays at Eurofins.
ASSAY NAME ESTIMATED IC50 [µM]
NET human norepinephrine transporter functional antagonist uptake >10 µM […]
as §5
GABAA α5/β3/γ2 ionotropic receptor (human GABRA5, GABRB3, >30
and GABRG2 genes, expressed in HEK293 cells

PA14 biofilm = test: Biofilm-formation assay (Calgary biofilm device); assay type: cell-based, Pseudomonas aeruginosa; settings: 24 present from the beginning or added 8 h after onset of biofilm growth; CFU after 48 h
Description: MA, USA) instrument parameters: Spray voltage 3500 V, vaporizer temperature 370 °C, sheath gas pressure 35 psi, aux gas pressure 30 psi, capillary temperature 270 °C, collision pressure 1.5 mTorr, positive ionization mode. For AQ analyte reaction monitoring parameters please see Table S1.
Table S1. LC-ESI-MS/MS reaction monitoring parameters of AQ analytes in positive ionization mode. precursor product ion collision tube lens retention ion m/z m/z energy (V) offset (V) time (min)
1.2.4 Biofilm-formation assay
Biofilm formation was determined using a MBEC Assay® Biofilm Inoculator with 96-well base (Innvotech, Edmonton, CA). An overnight culture of PA14 was centrifuged (10 min, 5000 x g). The supernatant including extracellular polymers was removed and the pellet washed with 10 mL of LB medium. Centrifugation was repeated, the supernatant discarded, and the pellet resuspended in 5 mL of LB. OD was adjusted to 0.2. The bacteria were further diluted in LB medium, followed by addition of the target compound or DMSO control to give OD 0.1 and 1% DMSO. 150 µL were added to each well of the 96-well plate. The outer wells were used as blanks containing 150 µL of 1% DMSO in LB. Six replicates per sample were distributed evenly across the plate, with every row containing one replicate of each sample. […]
Statistical outliers were determined using the Nalimov test, applying a 95% cut-off. […]

Lck kinase (h) = target: T4, Lck kinase (h) (Homo sapiens, UniProt P06239); test: Cerep panel functional assay; assay type: biochemical
T4 construct: Eurofins Pharma Discovery (CRO that ran the assay) SafetyScreen44 Panel (Cerep, ITEM P270)
Description: as §1, §2, §3, §4
(§6) P270). In all assays binding/functional inhibition was determined at 10 µM. […]

PDE4D2 (h) = target: T5, PDE4D2 (h) (Homo sapiens, UniProt Q08499); test: Cerep panel functional assay; assay type: biochemical
T5 construct: Eurofins Pharma Discovery (CRO that ran the assay) SafetyScreen44 Panel (Cerep, ITEM P270)
Description: as §1, §2, §3, §4, §6

PDE3A (h) = target: T6, PDE3A (h) (Homo sapiens, UniProt Q14432); test: Cerep panel functional assay; assay type: biochemical
T6 construct: Eurofins Pharma Discovery (CRO that ran the assay) SafetyScreen44 Panel (Cerep, ITEM P270)
Description: as §1, §2, §3, §4, §6

acetylcholinesterase (h) = target: T7, acetylcholinesterase (h) (Homo sapiens, UniProt P22303); test: Cerep panel functional assay; assay type: biochemical
T7 construct: Eurofins Pharma Discovery (CRO that ran the assay) SafetyScreen44 Panel (Cerep, ITEM P270)
Description: as §1, §2, §3, §4, §6

COX-2 (h) = target: T8, COX-2 (h) (Homo sapiens, UniProt P35354); test: Cerep panel functional assay; assay type: biochemical
T8 construct: Eurofins Pharma Discovery (CRO that ran the assay) SafetyScreen44 Panel (Cerep, ITEM P270)
Description: as §1, §2, §3, §4, §6

COX-1 (h) = target: T9, COX-1 (h) (Homo sapiens, UniProt P23219); test: Cerep panel functional assay; assay type: biochemical
T9 construct: Eurofins Pharma Discovery (CRO that ran the assay) SafetyScreen44 Panel (Cerep, ITEM P270)
Description: as §1, §2, §3, §4, §6

T1 sequence (Q12809 whole entry): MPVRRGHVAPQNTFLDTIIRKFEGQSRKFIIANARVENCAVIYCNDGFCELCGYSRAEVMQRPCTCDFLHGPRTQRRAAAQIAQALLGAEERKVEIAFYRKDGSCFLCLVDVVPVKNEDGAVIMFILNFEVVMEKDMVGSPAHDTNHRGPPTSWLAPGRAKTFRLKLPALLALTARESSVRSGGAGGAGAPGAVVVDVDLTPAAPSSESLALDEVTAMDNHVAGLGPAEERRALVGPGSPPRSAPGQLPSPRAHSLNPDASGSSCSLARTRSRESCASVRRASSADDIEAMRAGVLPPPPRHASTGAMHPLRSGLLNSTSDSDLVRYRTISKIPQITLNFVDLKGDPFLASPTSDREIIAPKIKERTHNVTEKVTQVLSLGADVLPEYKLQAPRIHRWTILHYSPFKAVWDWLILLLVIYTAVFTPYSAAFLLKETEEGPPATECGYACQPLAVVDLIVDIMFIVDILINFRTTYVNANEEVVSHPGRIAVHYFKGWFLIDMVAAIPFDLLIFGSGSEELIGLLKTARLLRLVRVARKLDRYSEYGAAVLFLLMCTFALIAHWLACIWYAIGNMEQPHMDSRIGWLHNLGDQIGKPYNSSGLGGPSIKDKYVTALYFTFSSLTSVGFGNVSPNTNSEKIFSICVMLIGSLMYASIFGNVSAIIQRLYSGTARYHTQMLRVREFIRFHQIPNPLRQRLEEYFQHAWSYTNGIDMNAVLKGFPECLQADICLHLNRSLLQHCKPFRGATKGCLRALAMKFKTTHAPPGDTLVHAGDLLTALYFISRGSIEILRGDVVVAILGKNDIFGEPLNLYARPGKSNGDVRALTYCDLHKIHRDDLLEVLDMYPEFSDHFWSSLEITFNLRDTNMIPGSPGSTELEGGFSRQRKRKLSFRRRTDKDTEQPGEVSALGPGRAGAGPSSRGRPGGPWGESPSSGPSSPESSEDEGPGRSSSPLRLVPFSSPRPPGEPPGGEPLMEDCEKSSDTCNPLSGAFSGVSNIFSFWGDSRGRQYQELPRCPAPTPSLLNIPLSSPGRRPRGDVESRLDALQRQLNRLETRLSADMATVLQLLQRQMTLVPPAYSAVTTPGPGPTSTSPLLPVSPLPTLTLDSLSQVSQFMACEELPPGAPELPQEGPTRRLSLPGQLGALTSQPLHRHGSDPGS
T5 sequence (Q08499 303-809 limits assumed): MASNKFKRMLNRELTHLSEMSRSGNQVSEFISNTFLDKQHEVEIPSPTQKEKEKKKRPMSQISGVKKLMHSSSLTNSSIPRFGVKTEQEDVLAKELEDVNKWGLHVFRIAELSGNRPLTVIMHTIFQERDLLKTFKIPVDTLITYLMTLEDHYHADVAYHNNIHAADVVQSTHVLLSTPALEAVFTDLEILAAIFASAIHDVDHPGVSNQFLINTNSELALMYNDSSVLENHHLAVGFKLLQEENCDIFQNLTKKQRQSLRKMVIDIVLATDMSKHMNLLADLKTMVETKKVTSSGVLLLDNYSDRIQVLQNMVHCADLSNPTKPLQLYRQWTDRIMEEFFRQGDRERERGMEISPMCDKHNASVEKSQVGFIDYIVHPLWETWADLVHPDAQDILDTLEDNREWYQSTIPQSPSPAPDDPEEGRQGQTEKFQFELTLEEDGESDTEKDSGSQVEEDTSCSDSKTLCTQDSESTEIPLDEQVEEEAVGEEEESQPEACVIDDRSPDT
T7 sequence (P22303 32-614): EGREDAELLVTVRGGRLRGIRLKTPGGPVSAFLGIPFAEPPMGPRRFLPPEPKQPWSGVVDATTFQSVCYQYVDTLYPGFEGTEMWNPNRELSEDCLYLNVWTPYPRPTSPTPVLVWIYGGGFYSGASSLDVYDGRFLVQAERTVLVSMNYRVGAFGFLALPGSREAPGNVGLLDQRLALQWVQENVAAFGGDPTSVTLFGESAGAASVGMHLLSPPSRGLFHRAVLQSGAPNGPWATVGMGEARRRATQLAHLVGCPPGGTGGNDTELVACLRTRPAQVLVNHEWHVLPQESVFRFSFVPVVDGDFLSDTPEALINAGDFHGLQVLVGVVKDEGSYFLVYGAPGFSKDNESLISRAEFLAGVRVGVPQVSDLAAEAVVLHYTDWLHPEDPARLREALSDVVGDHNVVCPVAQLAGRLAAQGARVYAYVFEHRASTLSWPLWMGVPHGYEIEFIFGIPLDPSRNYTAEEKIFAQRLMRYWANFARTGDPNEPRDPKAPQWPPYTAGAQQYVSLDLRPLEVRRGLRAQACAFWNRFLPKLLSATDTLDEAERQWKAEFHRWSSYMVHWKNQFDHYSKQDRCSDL
T2 sequence (P31644 32-462): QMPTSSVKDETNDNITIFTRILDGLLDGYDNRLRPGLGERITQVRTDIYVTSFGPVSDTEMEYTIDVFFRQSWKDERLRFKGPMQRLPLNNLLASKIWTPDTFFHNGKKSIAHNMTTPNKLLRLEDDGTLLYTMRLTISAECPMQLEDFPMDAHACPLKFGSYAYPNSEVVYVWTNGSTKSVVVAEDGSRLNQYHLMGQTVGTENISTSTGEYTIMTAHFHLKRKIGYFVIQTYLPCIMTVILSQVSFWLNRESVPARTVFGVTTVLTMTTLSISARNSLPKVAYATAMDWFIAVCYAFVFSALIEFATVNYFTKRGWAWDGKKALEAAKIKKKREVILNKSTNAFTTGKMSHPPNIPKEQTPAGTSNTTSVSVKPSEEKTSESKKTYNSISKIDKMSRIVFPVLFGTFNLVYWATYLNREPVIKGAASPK
T2 sequence (P28472 26-473): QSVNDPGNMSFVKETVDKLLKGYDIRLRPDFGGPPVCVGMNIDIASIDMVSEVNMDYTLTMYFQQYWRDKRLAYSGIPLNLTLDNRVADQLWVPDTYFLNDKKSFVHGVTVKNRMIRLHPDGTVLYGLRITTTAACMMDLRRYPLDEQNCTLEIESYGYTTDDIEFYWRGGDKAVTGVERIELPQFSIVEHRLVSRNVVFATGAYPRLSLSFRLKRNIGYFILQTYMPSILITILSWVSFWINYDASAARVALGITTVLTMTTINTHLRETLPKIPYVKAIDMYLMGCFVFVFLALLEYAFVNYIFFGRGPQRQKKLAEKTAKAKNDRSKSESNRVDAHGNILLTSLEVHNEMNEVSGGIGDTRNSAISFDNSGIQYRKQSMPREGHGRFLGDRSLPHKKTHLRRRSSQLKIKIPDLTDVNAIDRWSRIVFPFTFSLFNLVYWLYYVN
T2 sequence (P18507 40-475): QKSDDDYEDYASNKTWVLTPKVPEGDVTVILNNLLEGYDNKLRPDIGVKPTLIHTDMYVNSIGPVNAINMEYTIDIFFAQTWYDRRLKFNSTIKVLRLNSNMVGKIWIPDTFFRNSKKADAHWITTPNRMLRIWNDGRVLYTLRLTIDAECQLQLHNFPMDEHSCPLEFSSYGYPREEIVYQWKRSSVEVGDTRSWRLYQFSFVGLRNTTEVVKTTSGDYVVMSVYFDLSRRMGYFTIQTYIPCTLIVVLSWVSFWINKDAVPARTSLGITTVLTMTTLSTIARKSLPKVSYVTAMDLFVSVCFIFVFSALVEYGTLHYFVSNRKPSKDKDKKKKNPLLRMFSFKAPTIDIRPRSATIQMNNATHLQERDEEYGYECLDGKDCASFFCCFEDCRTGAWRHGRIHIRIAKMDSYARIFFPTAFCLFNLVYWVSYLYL
T9 sequence (P23219 24-599): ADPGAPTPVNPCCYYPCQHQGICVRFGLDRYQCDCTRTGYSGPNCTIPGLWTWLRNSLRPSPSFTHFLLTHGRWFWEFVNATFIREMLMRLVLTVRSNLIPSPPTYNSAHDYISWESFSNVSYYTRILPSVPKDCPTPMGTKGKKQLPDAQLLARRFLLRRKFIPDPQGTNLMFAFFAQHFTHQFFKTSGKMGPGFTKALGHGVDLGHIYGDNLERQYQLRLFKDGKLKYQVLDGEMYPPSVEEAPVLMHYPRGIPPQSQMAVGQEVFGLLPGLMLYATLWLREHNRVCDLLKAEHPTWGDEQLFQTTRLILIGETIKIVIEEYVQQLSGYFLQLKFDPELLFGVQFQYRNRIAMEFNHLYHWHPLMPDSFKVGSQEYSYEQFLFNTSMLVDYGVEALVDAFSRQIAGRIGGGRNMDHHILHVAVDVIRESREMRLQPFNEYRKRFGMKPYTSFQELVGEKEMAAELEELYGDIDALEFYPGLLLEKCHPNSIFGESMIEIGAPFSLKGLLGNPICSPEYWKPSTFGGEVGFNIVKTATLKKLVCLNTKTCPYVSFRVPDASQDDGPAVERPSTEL
T3 sequence (P23975 whole entry): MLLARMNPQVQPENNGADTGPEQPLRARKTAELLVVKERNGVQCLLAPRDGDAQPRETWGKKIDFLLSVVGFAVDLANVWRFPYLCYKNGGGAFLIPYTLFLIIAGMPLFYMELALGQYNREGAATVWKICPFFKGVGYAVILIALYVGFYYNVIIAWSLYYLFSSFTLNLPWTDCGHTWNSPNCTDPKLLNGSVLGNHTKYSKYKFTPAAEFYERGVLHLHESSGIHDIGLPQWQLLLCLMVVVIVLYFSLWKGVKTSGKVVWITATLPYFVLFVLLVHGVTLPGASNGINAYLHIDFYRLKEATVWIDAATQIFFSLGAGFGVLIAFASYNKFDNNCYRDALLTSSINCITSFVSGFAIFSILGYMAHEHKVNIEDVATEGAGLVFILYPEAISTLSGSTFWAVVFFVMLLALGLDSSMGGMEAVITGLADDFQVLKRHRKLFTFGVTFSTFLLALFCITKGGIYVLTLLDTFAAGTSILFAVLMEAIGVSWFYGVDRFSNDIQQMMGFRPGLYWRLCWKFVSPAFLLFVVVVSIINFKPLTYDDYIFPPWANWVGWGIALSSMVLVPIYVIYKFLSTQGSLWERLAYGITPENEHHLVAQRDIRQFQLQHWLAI

In the case of `CC(C)Oc1ccc(-c2ncc(CNc3ccnc(C(F)(F)F)c3)cn2)cc1Cl` [Compound 24], the half-life at 1 μM [1] is reported as 19 min, the “BINDING (%)” value [2] is reported as 73.1% and > 50% and the IC50 [3] is reported as > 30 µM. The IC50 [4] was > 10 µM, the “PA14 biofilm formation (CFU) compared to DMSO control” value (PA14 biofilm) was “significantly attenuates” and the inhibition at 10 µM (Lck kinase (h)) was -6.8%. The inhibition at 10 µM (PDE4D2 (h)) was 6.7%, the inhibition at 10 µM (PDE3A (h)) was 0.3% and the inhibition at 10 µM (acetylcholinesterase (h)) was -1.9%. It also gave an inhibition at 10 µM (COX-2 (h)) of 19.1% and an inhibition at 10 µM (COX-1 (h)) of 8.8%.
